Assay results: US9221791B2, “Metalloenzyme inhibitor compounds” (Viamet Pharmaceuticals, Inc., priority 2011, dated 2015)
In brackets after ≈: the same amount, converted by molar mass.

Tests used:
C. albicans = test: Minimum Inhibitory Concentration (MIC) (C. albicans), CLSI M27-A2; type: cell-based; conditions: Candida albicans; approximately 48 h at 35±1° C.; about 50% growth reduction
Experimental: A. Minimum Inhibitory Concentration (MIC) (C. albicans) Compounds of the present disclosure were assessed for their ability to inhibit the growth of common strains of fungus, C. albicans using a standardized procedure (CLSI M27-A2). Stock solutions of the test compounds and standards were prepared in DMSO at 1,600 μg/mL (C. albicans). Eleven, serial, one-half dilutions of compounds were prepared in 96-well plates in RPMI+MOPS. The assay concentration ranges were 8-0.001 μg/mL (C. albicans). Cell suspensions of C. albicans were prepared and added to each well at concentrations of approximately 3.7×10^3 colony-forming-units per milliliter (cfu/mL). All testing was in duplicate. The inoculated plates were incubated for approximately 48 h at 35±1° C. At the completion of incubation the wells of each plate were evaluated visually for the presence of fungal growth. […] For QC purposes C. krusei isolate ATCC 6258 (4.0×10^3 cfu/mL) was included in the VOR assay.

[1] = system: Septoria tritici (ATCC 26517); test: Minimum Inhibitory Concentration (MIC) (Septoria tritici), CLSI-based microdilution; type: cell-based; conditions: S. tritici ATCC 26517, 22° C. for seven days, 50% reduction in growth; for MIC: Zymoseptoria tritici, ATCC26517, 168 h, read-out: Septoria Rating (MIC)
How it was run: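 S. tritici (ATCC 26517) tested by CLSI-style broth microdilution for filamentous fungi in RPMI-1640/MOPS, 2-fold series 16–0.016 μg/mL (11 concentrations, 2% DMSO before inoculum), duplicate rows. Inoculum ~5×10^4 cfu/mL; plates incubated 7 days at 22 °C in the dark, static; growth scored on a rating scale.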

[2] = system: Puccinia recondita tritici = Puccinia triticina; test: Fungicidal activity vs. leaf rust on wheat plants; type: in vivo; conditions: wheat (variety Yuma) sprayed at 50 ppm, inoculated on the following day, evaluated 7-9 days later; read-out: Puccinia Rating (% Disease Control @ 50 ppm)
Excerpt: D. Evaluation of Fungicidal Activity Vs. Leaf Rust (Causal Agent Puccinia recondita tritici=Puccinia triticina; Bayer Code PUCCRT). […] Each pot contained 3-8 seedlings. These plants were sprayed until wet with the formulated test compounds. The compounds were formulated at 50 ppm in 10 vol. % acetone plus 90 vol. % Triton X water (deionized water 99.99 wt %+0.01 wt % Triton X100), giving a “formulated test compound.” Formulated test compounds were applied to plants using a turn table sprayer fitted with two opposing air atomization nozzles which delivered approximately 1500 L/ha of spray volume. On the following day, the leaves were inoculated with an aqueous spore suspension of Puccinia recondita tritici and the plants were kept in high humidity overnight to permit spores to germinate and infect the leaf. The plants were then transferred to a greenhouse until disease developed on untreated control plants. Disease severity was evaluated 7-9 days later, depending on the speed of disease development. In each case of Table 3, the Puccinia rating scale is as follows: […]

CYP3A4 = CYP3A4 (Homo sapiens (Human), UniProt P08684); test: Inhibition of Liver Cytochrome P450 Enzymes (pooled human liver microsomes), CYP3A4; type: in vitro ADME
Experimental: B. Inhibition of Liver Cytochrome P450 Enzymes
Solutions of each test compound were separately prepared at concentrations of 20000, 6000, 2000, 600, 200, and 60 μM by serial dilution with DMSO:MeCN (50:50 v/v). The individual test compound solutions were then diluted 20-fold with DMSO:MeCN:deionized water (5:5:180 v/v/v) to concentrations of 1000, 300, 100, 30, 10, and 3 μM. Mixtures of isozyme inhibitors (sulfaphenazole, tranylcypromine, and ketoconazole as specific inhibitors of isozymes 2C9, 2C19, and 3A4, respectively) were prepared containing each inhibitor at concentrations of 6000, 2000, 600, 200, 60, 20, 6, and 2 μM by serial dilution with DMSO:CH3CN (50:50 v/v). […]
Pooled human liver microsome suspension (20 mg/mL) was diluted with phosphate buffer to obtain a 5 mg/mL suspension. […] Separate stock solutions of each substrate were prepared in DMSO:MeCN (50:50 v/v), mixed, and diluted in phosphate buffer to obtain a single solution containing each substrate at five times its experimentally determined Km concentration. […]
Substrate solution and microsome suspension were combined in a 1:1 volume ratio, mixed, and distributed to reaction wells of a PCR plate. […] A portion of the supernatant was analyzed by gradient reverse-phase HPLC with detection by electrospray ionization triple quadrupole mass spectrometry in the positive ion mode. […]

Sequence of CYP3A4 (P08684 whole entry): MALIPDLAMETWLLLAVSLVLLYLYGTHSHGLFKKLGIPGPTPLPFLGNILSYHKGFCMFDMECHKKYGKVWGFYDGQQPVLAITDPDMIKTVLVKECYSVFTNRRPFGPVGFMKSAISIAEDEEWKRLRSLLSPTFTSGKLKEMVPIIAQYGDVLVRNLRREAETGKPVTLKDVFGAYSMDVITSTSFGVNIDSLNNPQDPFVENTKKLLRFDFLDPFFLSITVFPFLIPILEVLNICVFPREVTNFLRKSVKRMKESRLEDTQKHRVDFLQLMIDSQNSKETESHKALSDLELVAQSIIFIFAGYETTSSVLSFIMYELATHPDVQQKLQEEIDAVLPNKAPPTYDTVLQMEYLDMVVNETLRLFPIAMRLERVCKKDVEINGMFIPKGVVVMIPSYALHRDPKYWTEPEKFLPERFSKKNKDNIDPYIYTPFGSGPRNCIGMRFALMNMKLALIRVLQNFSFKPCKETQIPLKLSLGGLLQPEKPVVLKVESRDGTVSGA

## CCOC(=O)/C=C/c1ccc(C(F)(F)C(O)(Cn2cnnn2)c2ccc(F)cc2F)nc1 (stereo not drawn) [Compound 4, (E)-Ethyl 3-(6-(2-(2,4-difluorophenyl)-1,1-difluoro-2-hydroxy-3-(1H-tetrazol-1-yl)propyl)pyridin-3-yl)acrylate]
C. albicans
  MIC: ≤ 0.016 µg/mL
[1]
  MIC: ≤ 0.5 µg/mL

## OC(Cn1cnnn1)(c1ccc(F)cc1F)C(F)(F)c1ccc(/C=C/COCC(F)(F)F)cn1 (stereo not drawn) [Compound 6, (E)-2-(2,4-Difluorophenyl)-1,1-difluoro-3-(1H-tetrazol-1-yl)-1-(5-(3-(2,2,2-trifluoroethoxy)prop-1-en-1-yl)pyridin-2-yl)propan-2-ol]
C. albicans
  MIC: ≤ 0.016 µg/mL
[1]
  MIC: ≤ 0.5 µg/mL
[2]
  pest or weed control at 50 ppm: < 40%

## OC(Cn1cnnn1)(c1ccc(F)cc1F)C(F)(F)c1ccc(-c2ccc(Cl)nc2)cn1 (stereo not drawn) [Compound 30, 1-(6′-Chloro-[3,3′-bipyridin]-6-yl)-2-(2,4-difluorophenyl)-1,1-difluoro-3-(1H-tetrazol-1-yl)propan-2-ol]
C. albicans
  MIC: 0.062 µg/mL (≈ 0.133 µM)
[2]
  pest or weed control at 50 ppm: 80 to 100%

## OC(Cn1cnnn1)(c1ccc(F)cc1F)C(F)(F)c1ccc(-c2ccc(F)nc2)cn1 (stereo not drawn) [Compound 31, 2-(2,4-Difluorophenyl)-1,1-difluoro-1-(6′-fluoro-[3,3′-bipyridin]-6-yl)-3-(1H-tetrazol-1-yl)propan-2-ol]
C. albicans
  MIC: 0.062 µg/mL (≈ 0.138 µM)
CYP3A4
  IC50: 33 µM
[1]
  Septoria Rating (MIC): C (>1.5-4)

## N#Cc1cccc(OCc2ccc(C(F)(F)C(O)(Cn3cnnn3)c3ccc(F)cc3F)nc2)c1F (stereo not drawn) [Compound 89, 3-((6-(2-(2,4-difluorophenyl)-1,1-difluoro-2-hydroxy-3-(1H-tetrazol-1-yl)propyl)pyridin-3-yl)methoxy)-2-fluorobenzonitrile]
[1]
  MIC: ≤ 0.5 µg/mL
[2]
  pest or weed control at 50 ppm: 80 to 100%

## N#Cc1ccc(SCc2ccc(C(F)(F)C(O)(Cn3cnnn3)c3ccc(F)cc3F)nc2)c(F)c1 (stereo not drawn) [Compound 90, 4-(((6-(2-(2,4-difluorophenyl)-1,1-difluoro-2-hydroxy-3-(1H-tetrazol-1-yl)propyl)pyridin-3-yl)methyl)thio)-3-fluorobenzonitrile]
[1]
  MIC: 1.5 µg/mL (≈ 2.89 µM)
[2]
  pest or weed control at 50 ppm: 40 to 59%

## OC(Cn1cnnn1)(c1ccc(F)cc1F)C(F)(F)c1ccc(COC(F)F)cn1 (stereo not drawn) [Compound 92, 1-(5-((difluoromethoxy)methyl)pyridin-2-yl)-2-(2,4-difluorophenyl)-1,1-difluoro-3-(1H-tetrazol-1-yl)propan-2-ol]
[1]
  MIC: ≤ 0.5 µg/mL
[2]
  pest or weed control at 50 ppm: 80 to 100%

## OC(Cn1cnnn1)(c1ccc(F)cc1F)C(F)(F)c1ccc(-c2ccc(Cl)cn2)cn1 (stereo not drawn) [Compound 93, 1-(5-chloro-[2,3′-bipyridin]-6′-yl)-2-(2,4-difluorophenyl)-1,1-difluoro-3-(1H-tetrazol-1-yl)propan-2-ol]
[1]
  MIC: ≤ 0.5 µg/mL
[2]
  pest or weed control at 50 ppm: 80 to 100%

## OC(Cn1cnnn1)(c1ccc(F)cc1F)C(F)(F)c1ccc(-c2ccc(C(F)(F)F)cn2)cn1 (stereo not drawn) [Compound 94, 2-(2,4-difluorophenyl)-1,1-difluoro-3-(1H-tetrazol-1-yl)-1-(5-(trifluoromethyl)-[2,3′-bipyridin]-6′-yl)propan-2-ol]
[1]
  MIC: ≤ 0.5 µg/mL
[2]
  pest or weed control at 50 ppm: 80 to 100%

## N#Cc1ccc(-c2ccc(C(F)(F)C(O)(Cn3cnnn3)c3ccc(F)cc3F)nc2)nc1 (stereo not drawn) [Compound 95, 6′-(2-(2,4-difluorophenyl)-1,1-difluoro-2-hydroxy-3-(1H-tetrazol-1-yl)propyl)-[2,3′-bipyridine]-5-carbonitrile]
[1]
  MIC: 1.5 to 4 µg/mL (≈ 3.29 to 8.78 µM)
[2]
  pest or weed control at 50 ppm: 80 to 100%

## OC(Cn1cnnn1)(c1ccc(F)cc1F)C(F)(F)c1ccc(-c2ccncc2)cn1 (stereo not drawn) [Compound 96, 1-([3,4′-bipyridin]-6-yl)-2-(2,4-difluorophenyl)-1,1-difluoro-3-(1H-tetrazol-1-yl)propan-2-ol]
[1]
  MIC: 1.5 to 4 µg/mL (≈ 3.49 to 9.29 µM)
[2]
  pest or weed control at 50 ppm: 60 to 79%

## N#Cc1ccc(OCc2ccc(C(F)(F)C(O)(Cn3cnnn3)c3ccc(F)cc3F)nc2)nc1 (stereo not drawn) [Compound 98, 6-((6-(2-(2,4-difluorophenyl)-1,1-difluoro-2-hydroxy-3-(1H-tetrazol-1-yl)propyl)pyridin-3-yl)methoxy)nicotinonitrile]
[1]
  MIC: ≤ 0.5 µg/mL
[2]
  pest or weed control at 50 ppm: 80 to 100%

## OC(Cn1cnnn1)(c1ccc(F)cc1F)C(F)(F)c1ccc(COc2ccc(C(F)(F)F)cn2)cn1 (stereo not drawn) [Compound 99, 2-(2,4-difluorophenyl)-1,1-difluoro-3-(1H-tetrazol-1-yl)-1-(5-(((5-(trifluoromethyl)pyridin-2-yl)oxy)methyl)pyridin-2-yl)propan-2-ol]
[1]
  MIC: ≤ 0.5 µg/mL
[2]
  pest or weed control at 50 ppm: 80 to 100%

## OC(Cn1cnnn1)(c1ccc(F)cc1F)C(F)(F)c1ccc(COc2ncc(C(F)(F)F)cc2Cl)cn1 (stereo not drawn) [Compound 100]
[1]
  MIC: ≤ 0.5 µg/mL
[2]
  pest or weed control at 50 ppm: 80 to 100%

## OC(Cn1cnnn1)(c1ccc(F)cc1F)C(F)(F)c1ccc(C(F)(F)c2ccc(F)cc2)cn1 (stereo not drawn) [Compound 101, 1-(5-(difluoro(4-fluorophenyl)methyl)pyridin-2-yl)-2-(2,4-difluorophenyl)-1,1-difluoro-3-(1H-tetrazol-1-yl)propan-2-ol]
[1]
  MIC: 1.5 to 4 µg/mL (≈ 3.02 to 8.04 µM)
[2]
  pest or weed control at 50 ppm: 80 to 100%

## OC(Cn1cnnn1)(c1ccc(F)cc1F)C(F)(F)c1ccc(C(F)(F)c2ccc(C(F)(F)F)cc2)cn1 (stereo not drawn) [Compound 102, 1-(5-(difluoro(4-(trifluoromethyl)phenyl)methyl)pyridin-2-yl)-2-(2,4-difluorophenyl)-1,1-difluoro-3-(1H-tetrazol-1-yl)propan-2-ol]
[1]
  MIC: 1.5 to 4 µg/mL (≈ 2.74 to 7.31 µM)
[2]
  pest or weed control at 50 ppm: 80 to 100%

## N#Cc1ccc(C(F)(F)c2ccc(C(F)(F)C(O)(Cn3cnnn3)c3ccc(F)cc3F)nc2)cc1 (stereo not drawn) [Compound 103, 4-((6-(2-(2,4-difluorophenyl)-1,1-difluoro-2-hydroxy-3-(1H-tetrazol-1-yl)propyl)pyridin-3-yl)difluoromethyl)benzonitrile]
[1]
  MIC: 1.5 to 4 µg/mL (≈ 2.97 to 7.93 µM)
[2]
  pest or weed control at 50 ppm: 80 to 100%
